How the values were obtained:
[1] = UV absorption (λmax, molar and specific extinction, intrinsic coloration); type: physicochemical; conditions: for E (molar extinction coefficient): Table 1, at λmax; for specific extinction: text on Table 2, compared with compounds of formula I, in words
[2] = solubility at RT in cosmetic oils; type: physicochemical; conditions: for solubility at RT, groundnut/paraffin oil = 1:9: groundnut/paraffin oil = 1:9, printed as symbol

SMILES | λmax ([1]; Table 1) [nm] | E (molar extinction coefficient) [1] [L/mol/cm] | specific extinction E^1 ([1]; Table 2) | λmax ([1]; Table 2) [nm] | solubility at RT, groundnut oil ([2]; printed as symbol) | solubility at RT, groundnut/paraffin oil = 1:9 [2] | specific extinction [1] | solubility at RT, groundnut oil [2] [%]
CCOC(=O)C(=CN1CCCc2ccccc21)C(=O)OCC [(6), N-(dicarboethoxyvinyl)-1,2,3,4-tetrahydroquinoline] | 317 | 26700 | 878 | 317 | .infin. | .infin. |  | 
CCOC(=O)C(C(=O)OCC)=C(C)N1CCc2ccccc21 [(3), N-(α-methyl-β,β-dicarboethoxyvinyl)indoline] | 338 |  |  | 338 | .infin. | .infin. |  | 
CC(C)COC(=O)C(=CN1c2ccccc2CC1C)C(=O)OCC(C)C (stereo not drawn) [(4), N-(dicarbo-iso-butoxyvinyl)-2-methylindoline] | 331 | 26200 | 730 | 331 | .infin. | .infin. |  | 
COc1ccc(C(=O)c2cc(S(=O)(=O)O)c(OC)cc2O)c(O)c1 [Comparison example 1, sodium 2,2'-dihydroxy-4,4'-dimethoxybenzophenone-5-sulphonate, reference compound] |  |  | 160 | 330 |  |  | markedly lower specific extinction | 

Results, then the compound that gave them:

λmax ([1]; Table 1) [nm] | E (molar extinction coefficient) [1] [L/mol/cm] | specific extinction E^1 ([1]; Table 2) | λmax ([1]; Table 2) [nm] | solubility at RT, groundnut oil ([2]; printed as symbol) | solubility at RT, groundnut/paraffin oil = 1:9 [2] | specific extinction [1] | solubility at RT, groundnut oil [2] [%] | SMILES
330 | 32200 | 1114 | 330 | .infin. | .infin. |  |  | CCOC(=O)C(=CN1CCc2ccccc21)C(=O)OCC [(1), N-(dicarboethoxyvinyl)indoline]
330 | 30000 | 1008 | 330 | .infin. | .infin. |  |  | CCOC(=O)C(=CN1c2ccccc2CC1C)C(=O)OCC (stereo not drawn) [Compound (2), N-(dicarboethoxyvinyl)-2-methylindoline]
332 | 25300 | 582 | 332 | .infin. | .infin. |  |  | CCCCCCOC(=O)C(=CN1c2ccccc2CC1C)C(=O)OCCCCCC (stereo not drawn) [(5), N-(dicarbohexyloxyvinyl)-2-methylindoline]
 |  |  |  |  |  |  | 1 | COc1ccc(C(=O)CC(=O)c2ccc(OC)cc2)cc1 [Comparison example 3, dianisoylmethane, reference compound]
 |  | 645 | 351 |  |  | markedly lower specific extinction | 0.8 | O=C(c1ccc(O)cc1O)c1ccc(O)cc1O [Comparison example 2, 2,2',4,4'-tetrahydroxybenzophenone, reference compound]

From US4792609A, “Indoline and 1,2,3,4-tetrahydroquinoline N(dicarboalkoxyvinyl) substituted derivatives” (Bayer Aktiengesellschaft, priority 1985, dated 1988)
